The test system of one data set is T1, SNU387-TgSALL4BBHi.
T1 construct: SNU-387 overexpressing SALL4B
The data set can be described thus: cells. More on the design: species or system SNU-387, SNU-398 and SNU-387 isogenic lines; CellTiter-Glo luminescence cell viability, dose-response EC50. The conditions noted are these: 72 h. As to the method: (§1) Empty vector, SALL4A, and SALL4B expressing isogenic cell lines were generated by transducing the SALL4 negative hepatocellular carcinoma SNU-387 cells with empty vector, SALL4A, or SALL4B FUW-Luc-mCh-puro lentiviral constructs. Cells were plated in 50 μl of RPMI culture media in 384-well white flat-bottom plates (Corning) and incubated at 37 °C in a humidified atmosphere of 5% CO2 overnight. Cell numbers per well were 1500 for SNU-398, and 750 for SNU-387 and SNU-387 isogenic lines. After overnight incubation, varying concentrations of compounds 1–80 were added to cells with multichannel electronic pipettes (Rainin). Cells were then incubated for 72 h at 37 °C in a humidified atmosphere of 5% CO2 before 10 μl of CellTiter-Glo reagent was added to the wells with the MultiFlo Microplate Dispenser (BioTek). Cells were incubated at room temperature for a minimum of 10 min, after which luminescence readings were recorded by an Infinite M1000 Microplate Reader (Tecan). Each data point was performed in n = 3 independent cell cultures. IC50 of compounds were determined using nonlinear regression fitting from Prism (GraphPad). Cell-based screening was next employed to evaluate the growth inhibitory activity of the test compounds against SALL4 expressing malignant cells. SNU398, a liver cancer cell line with high endogenous levels of SALL4, and SNU387, a liver cancer cell line with undetectable levels of SALL4, were used for comparison. Cells were incubated with the test compound at 1 μM for 72 h, after which cell viability was assessed. […] Next, we carried out dose escalation studies on all SH compounds to deduce their EC50 values on SNU387 and SNU398. In order to interrogate the effects of compounds targeting SALL4, we created isogenic cells by overexpressing SALL4A (SNU387-TgSALL4A) or SALL4B (SNU387-TgSALL4B) in SNU387 cells (Tan et al, [2019]) (Fig. 2B, and Dataset EV4). The EC50 of SH2, SH6, and SH7 in SALL4 high SNU398 cells were 0.4 μM, 0.5 μM, and 0.3 μM, respectively. In contrast, the EC50 values of the same compounds were more than 10 μM on SALL4 low SNU387 cells.

The next data set concerns T2, SNU387-TgSALL4AAHi.
T2 construct: SNU-387 overexpressing SALL4A
Put plainly: cells. Conditions: 72 h. More on the design: species or system SNU-387, SNU-398 and SNU-387 isogenic lines; CellTiter-Glo luminescence cell viability, dose-response EC50. As for the experimental part: as §1

The subject of another data set is T3, SNU387Lo.
T3 construct: SNU-387 hepatocellular carcinoma, SALL4 low
Put plainly: cells. The arrangement: species or system SNU-387, SNU-398 and SNU-387 isogenic lines; CellTiter-Glo luminescence cell viability, dose-response EC50. The conditions noted are these: 72 h. As to the method: as §1

A further data set relates to T4, SNU387-EvLo.
T4 construct: SNU-387 empty vector control
Put plainly: cells. The arrangement: species or system SNU-387, SNU-398 and SNU-387 isogenic lines; CellTiter-Glo luminescence cell viability, dose-response EC50. Conditions: 72 h. As for the experimental part: as §1

For another data set, the system named is T5, SNU398Hi.
T5 construct: SNU-398 hepatocellular carcinoma, SALL4 high
Put plainly: cells. The arrangement: species or system SNU-387, SNU-398 and SNU-387 isogenic lines; CellTiter-Glo luminescence cell viability, dose-response EC50. The conditions noted are these: 72 h. As for the experimental part: as §1

The next data set relates to SNU387. Put plainly: cells. Conditions: Homo sapiens, SNU-387; 72 h cell viability; read-out: EC50 / SNU387Lo. The arrangement: species or system SNU398 and SNU387 isogenic lines; CellTiter-Glo luminescence viability dose response in 384-well plates, nonlinear regression. As to the method:
as §1

The test system of data set [1] is T6, SNU387-Ev (SNU387 transduced with empty vector).
T6 construct: empty vector FUW-Luc-mCh-puro
The data set can be described thus: cells. More on the design: species or system SNU398 and SNU387 isogenic lines; CellTiter-Glo luminescence viability dose response in 384-well plates, nonlinear regression. The conditions noted are these: Homo sapiens, SNU-387; 72 h cell viability; read-out: EC50 / SNU387-EvLo. As for the experimental part:
as §1

A further data set deals with T7, SNU387-TgSALL4A.
T7 construct: SNU387 overexpressing SALL4A (FUW-Luc-mCh-puro)
Put plainly: cells. More on the design: species or system SNU398 and SNU387 isogenic lines; CellTiter-Glo luminescence viability dose response in 384-well plates, nonlinear regression. Conditions: 72 h cell viability; read-out: EC50 / SNU387-TgSALL4AAHi. As to the method:
as §1

In the next data set the test system is T8, SNU387-TgSALL4B.
T8 construct: SNU387 overexpressing SALL4B (FUW-Luc-mCh-puro)
The data set can be described thus: cells. The conditions noted are these: 72 h cell viability; read-out: EC50 / SNU387-TgSALL4BBHi. The arrangement: species or system SNU398 and SNU387 isogenic lines; CellTiter-Glo luminescence viability dose response in 384-well plates, nonlinear regression. As to the method: as §1

The test system of the next data set is SNU398. The data set can be described thus: cells. The arrangement: species or system SNU387, SNU398 and SNU387 isogenic lines; CellTiter-Glo luminescence viability dose response in 384-well plates, nonlinear regression. Conditions: Homo sapiens, SNU-398; 72 h cell viability; read-out: EC50 / SNU398Hi. As to the method: as §1
A further data set has as its target T9, CUL4A (Homo sapiens, UniProt Q13619).
T9 construct: Recombinant CUL4A (Creative Biomart CUL4A-690H)
Put plainly: SPR (Biacore, immobilized CUL4A); supported by in-cell CETSA. The data set is classed as binding. (In SPR one partner is held on a chip, and binding of the other changes the refractive index at the surface.)

In another data set the target is T10, CRBN (cereblon) (Homo sapiens, UniProt Q96SW2).
T10 construct: endogenous CRBN in SNU398 cells
T10 sequence (Q96SW2 whole entry): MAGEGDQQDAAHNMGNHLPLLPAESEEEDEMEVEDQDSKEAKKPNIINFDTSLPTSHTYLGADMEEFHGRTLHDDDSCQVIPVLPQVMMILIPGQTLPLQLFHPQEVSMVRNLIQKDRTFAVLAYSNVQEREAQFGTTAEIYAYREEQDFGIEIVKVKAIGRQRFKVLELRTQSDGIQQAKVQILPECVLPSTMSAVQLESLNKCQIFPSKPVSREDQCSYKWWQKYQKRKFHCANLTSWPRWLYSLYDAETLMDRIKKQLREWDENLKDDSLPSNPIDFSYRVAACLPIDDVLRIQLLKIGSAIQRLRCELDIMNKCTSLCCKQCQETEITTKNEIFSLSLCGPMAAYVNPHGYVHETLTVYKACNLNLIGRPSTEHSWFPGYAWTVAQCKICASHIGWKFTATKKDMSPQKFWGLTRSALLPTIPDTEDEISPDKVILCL
Put plainly: in-cell CETSA only ([…] SH6). Type of data set: cell-based.

In another data set the target is T11, hERG potassium channel (Homo sapiens, UniProt Q12809).
T11 construct: gene KCNH2
T11 sequence (Q12809 whole entry): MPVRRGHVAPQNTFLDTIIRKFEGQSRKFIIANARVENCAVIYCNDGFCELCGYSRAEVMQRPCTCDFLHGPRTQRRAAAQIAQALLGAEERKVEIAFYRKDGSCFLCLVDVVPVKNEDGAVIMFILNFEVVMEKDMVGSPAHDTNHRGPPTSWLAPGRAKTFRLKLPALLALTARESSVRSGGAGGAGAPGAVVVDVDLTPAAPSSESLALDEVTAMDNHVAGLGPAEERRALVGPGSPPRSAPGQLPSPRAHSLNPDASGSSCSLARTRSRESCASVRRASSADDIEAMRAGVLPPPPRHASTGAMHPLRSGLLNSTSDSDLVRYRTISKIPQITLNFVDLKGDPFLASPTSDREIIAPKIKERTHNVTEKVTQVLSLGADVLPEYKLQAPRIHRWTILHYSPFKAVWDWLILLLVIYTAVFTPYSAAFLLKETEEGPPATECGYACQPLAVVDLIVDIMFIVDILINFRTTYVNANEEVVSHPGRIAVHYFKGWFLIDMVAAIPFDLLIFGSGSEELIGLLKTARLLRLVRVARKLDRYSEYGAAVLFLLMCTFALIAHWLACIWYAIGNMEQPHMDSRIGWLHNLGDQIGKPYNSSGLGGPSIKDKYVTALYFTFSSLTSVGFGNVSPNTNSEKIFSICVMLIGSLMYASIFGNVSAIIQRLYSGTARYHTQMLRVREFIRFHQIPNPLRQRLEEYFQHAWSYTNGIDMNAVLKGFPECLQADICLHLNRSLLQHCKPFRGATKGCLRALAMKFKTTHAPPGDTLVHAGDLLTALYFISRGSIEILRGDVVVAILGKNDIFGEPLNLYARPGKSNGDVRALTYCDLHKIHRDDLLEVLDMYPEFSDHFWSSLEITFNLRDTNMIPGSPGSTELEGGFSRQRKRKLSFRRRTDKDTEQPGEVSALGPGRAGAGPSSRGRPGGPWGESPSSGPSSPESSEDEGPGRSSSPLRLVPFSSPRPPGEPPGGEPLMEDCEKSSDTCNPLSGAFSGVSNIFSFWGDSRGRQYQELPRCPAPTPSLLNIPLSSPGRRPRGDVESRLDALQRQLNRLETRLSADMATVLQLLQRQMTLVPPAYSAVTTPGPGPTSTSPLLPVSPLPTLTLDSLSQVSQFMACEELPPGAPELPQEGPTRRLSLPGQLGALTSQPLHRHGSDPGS
Put plainly: hERG channel block concentration-response. Type of data set: cell-based. (In general: hERG is a cardiac potassium channel; its block is linked to QT prolongation.)

The target of a further data set is T12, SALL4 ZFC4 (human, UniProt Q9UJQ4).
T12 sequence: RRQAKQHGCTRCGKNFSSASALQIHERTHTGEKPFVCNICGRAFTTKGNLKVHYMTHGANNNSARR
Put plainly: X-ray crystallography (2.1 A); Zn2+; 500 uM protein with 750 uM DNA; Crystallization: protein in 20 mM HEPES pH 7.5, 200 mM NaCl, 0.5 mM TCEP, 1 mM DTT, 10 uM ZnCl2; mixed with equal volume of 30% PEG3350, 0.04 M NH4SO4, BisTris. Conditions: protein: recombinant; tags: N-terminal GST, removed with thrombin (pGEX4T1); chain copies: 2; blunt.

We go through 22 molecules from article PMC12163085, “Targeting transcription factors through an IMiD independent zinc finger domain” (EMBO Molecular Medicine, 2025).

The term Kd denotes the equilibrium constant for the complex coming apart. By IC50 is commonly meant the concentration at which inhibition is half-maximal. A low value points to higher potency.

T9 sequence (Q13619 whole entry): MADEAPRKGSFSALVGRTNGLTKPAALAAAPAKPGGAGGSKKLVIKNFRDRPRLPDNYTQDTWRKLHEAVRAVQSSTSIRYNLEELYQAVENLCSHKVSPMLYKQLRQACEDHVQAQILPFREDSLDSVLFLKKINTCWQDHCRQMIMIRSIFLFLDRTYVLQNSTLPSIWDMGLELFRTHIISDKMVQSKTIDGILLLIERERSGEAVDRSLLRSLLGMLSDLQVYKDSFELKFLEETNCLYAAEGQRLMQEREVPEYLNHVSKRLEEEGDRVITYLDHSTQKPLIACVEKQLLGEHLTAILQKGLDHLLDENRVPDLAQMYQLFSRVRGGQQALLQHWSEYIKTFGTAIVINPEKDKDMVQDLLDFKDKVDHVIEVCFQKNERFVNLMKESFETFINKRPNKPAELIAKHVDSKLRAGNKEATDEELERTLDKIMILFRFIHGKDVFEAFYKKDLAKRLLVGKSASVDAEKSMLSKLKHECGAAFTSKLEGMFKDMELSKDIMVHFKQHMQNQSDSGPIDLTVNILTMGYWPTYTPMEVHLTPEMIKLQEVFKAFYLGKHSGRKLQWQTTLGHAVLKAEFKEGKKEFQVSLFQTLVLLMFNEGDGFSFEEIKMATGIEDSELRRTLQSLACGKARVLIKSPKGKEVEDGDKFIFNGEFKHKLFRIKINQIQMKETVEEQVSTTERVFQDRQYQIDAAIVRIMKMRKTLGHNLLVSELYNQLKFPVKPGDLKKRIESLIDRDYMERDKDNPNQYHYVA

`Nc1ccc(F)cc1NC(=O)c1cccnc1Nc1ccc(F)cc1` [SH61]: the EC50 in the data set on SNU387-TgSALL4BBHi was greater than 10 µM; in the data set on SNU387-TgSALL4AAHi, greater than 10 µM; in the data set with SNU387Lo it was greater than 30 µM; with SNU387-EvLo, greater than 10 µM; with SNU398Hi it was greater than 30 µM.

`COc1cc(Nc2ncccc2/C=C/C(=O)Nc2cc(Cl)c(Cl)cc2N)cc(OC)c1OC` [SH7]: the EC50 with SNU387 is roughly 30 µM; in data set [1], greater than 10 µM; in the data set on SNU387-TgSALL4A, 1 µM; with SNU387-TgSALL4B, 0.3 µM; with SNU398, 0.3 µM.

In the case of `COc1ccc(N)c(NC(=O)/C=C/c2cccnc2Nc2cc(OC)c(OC)c(OC)c2)c1` [SH2], the EC50 with SNU387 was greater than 30 µM; in data set [1] it was greater than 10 µM; in the data set with SNU387-TgSALL4A, 1.3 µM; in the data set on SNU387-TgSALL4B, 0.4 µM; with SNU398, 0.4 µM.

On to `COc1cc(Nc2ncccc2/C=C/C(=O)Nc2ccc(Cl)cc2N)cc(OC)c1OC` [SH6, (2E)-N-(2-amino-4-chlorophenyl)-3-[2-(3,4,5-trimethoxyanilino)pyridin-3-yl] prop-2-enamide], for which, on CUL4A, the dissociation constant Kd is roughly 89 µM. In addition, the “in-cell CETSA only (50 μM SH6)” value at CRBN (cereblon) is “higher thermal stability (less unfolding) of CUL4, CRBN, and SALL4 (Fig. 3F), implicating these proteins as binding partners of SH6”. The molecule further came in with a half-maximal inhibitory concentration (IC50) at hERG potassium channel of 22.2 µM.

Take `Nc1cc(Cl)c(Cl)cc1NC(=O)c1cccnc1Nc1ccc(C(F)(F)F)cc1` [SH71]: the values for the EC50 in the data set with SNU387 and in the data set on SNU398 were roughly 25 µM and roughly 16 µM, respectively.

As to `O=C(/C=C/c1cccnc1Nc1ccc(Cl)cc1)NO` [SH40], the EC50 is greater than 30 µM in the data set with SNU387 and roughly 15 µM with SNU398.

Take `Cc1ccc(N)c(NC(=O)/C=C/c2cccnc2Nc2ccc(Cl)cc2)c1` [SH35]: the EC50 is roughly 20 µM with SNU387 and roughly 9 µM in the data set with SNU398.

In the case of `COc1ccc(N)c(NC(=O)/C=C/c2cccnc2Nc2ccc(C(F)(F)F)cc2)c1` [SH26], the values for the EC50 in the data set with SNU387 and in the data set on SNU398 were roughly 12 µM and roughly 6 µM, respectively.

In the case of `COc1ccc(Nc2ncccc2C(=O)Nc2cc(OC)ccc2N)cc1` [SH50], the EC50 in the data set on SNU387 and in the data set on SNU398 was greater than 30 µM in each case.

For the molecule `Nc1ccc(F)cc1NC(=O)/C=C/c1cccnc1Nc1ccc(F)cc1` [SH21], the EC50 with SNU387 was greater than 30 µM; in the data set on SNU398, roughly 25 µM.

On to `COc1ccc(N)c(NC(=O)c2cccnc2Nc2ccc(C(F)(F)F)cc2)c1` [SH66], for which the EC50 in the data set on SNU387 is greater than 30 µM; with SNU398, roughly 25 µM.

Consider `COc1ccc(Nc2ncccc2/C=C/C(=O)Nc2ccccc2N)cc1` [SH9], for which the EC50 is greater than 30 µM in the data set on SNU387 and roughly 25 µM in the data set on SNU398.

Turning to `Cc1cc(N)c(NC(=O)c2cccnc2Nc2ccc(F)cc2)cc1C` [SH60], the EC50 in the data set on SNU387 and with SNU398 was greater than 30 µM in each case.

Take `COc1ccc(Nc2ncccc2/C=C/C(=O)Nc2cc(Cl)ccc2N)cc1` [SH14]: the values for the EC50 in the data set on SNU387 and in the data set on SNU398 were roughly 25 µM and roughly 7 µM, respectively.

Turning to `Cc1cc(N)c(NC(=O)c2cccnc2Nc2ccc(Cl)cc2)cc1C` [SH76], the EC50 in the data set on SNU387 was greater than 30 µM; in the data set with SNU398, roughly 30 µM.

As to `Nc1ccccc1NC(=O)/C=C/c1cccnc1Nc1ccc(C(F)(F)F)cc1` [SH25], the EC50 was greater than 30 µM with SNU387 and 30 µM in the data set on SNU398.

For the molecule `COc1ccc(N)c(NC(=O)c2cccnc2Nc2ccc(Cl)cc2)c1` [SH74], the EC50 was greater than 30 µM in the data set on SNU387 and roughly 20 µM in the data set with SNU398.

In the case of `Cc1cc(N)c(NC(=O)/C=C/c2cccnc2Nc2ccc(F)cc2)cc1C` [SH20], the EC50 is greater than 30 µM with SNU387 and roughly 12 µM in the data set on SNU398.

For the molecule `O=C(/C=C/c1cccnc1Nc1ccc(C(F)(F)F)cc1)NO` [SH32], the EC50 with SNU387 was greater than 30 µM; in the data set on SNU398, roughly 8 µM.

As to `Nc1ccc(Cl)cc1NC(=O)c1cccnc1Nc1ccc(F)cc1` [SH62], the figures for the EC50 in the data set with SNU387 and with SNU398 were greater than 30 µM and roughly 25 µM, respectively.

Regarding `Cc1ccc(N)c(NC(=O)c2cccnc2Nc2ccc(Cl)cc2)c1` [SH75], the EC50 in the data set on SNU387 and in the data set on SNU398 was greater than 30 µM in each case.

B1: 12-mer TATTA SALL4 motif duplex (dsDNA)
DNA 1: CGAAATATTAGC
DNA 2: GCTAATATTTCG
Turning to B1, the binding result with SALL4 ZFC4 was “binds”.
